# Experimental data as given in PubChem BioAssay AID1645866 (Buhrlage Lab, Dana-Farber Cancer Institute and Novartis …, 2021).
# Active and inactive are the calls of the source.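 Rule for the calls: active = in confirmatory dose-response testing, peak deubiquitinase inhibition of 30% or more; inactive = the rest.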
# Molecular target: Ubiquitin carboxyl-terminal hydrolase 28 (Homo sapiens) (UniProt Q96RU2)
# Test: Concentration-response biochemical assay confirming initial hits as inhibitors of ubiquitin-specific protease 28 (AID 1645866)
# Conditions: purified USP28, ubiquitin-rhodamine fluorescence, 30 min
# Ubiquitin carboxyl-terminal hydrolase 28 (Homo sapiens), sequence (Q96RU2 whole entry, looked up): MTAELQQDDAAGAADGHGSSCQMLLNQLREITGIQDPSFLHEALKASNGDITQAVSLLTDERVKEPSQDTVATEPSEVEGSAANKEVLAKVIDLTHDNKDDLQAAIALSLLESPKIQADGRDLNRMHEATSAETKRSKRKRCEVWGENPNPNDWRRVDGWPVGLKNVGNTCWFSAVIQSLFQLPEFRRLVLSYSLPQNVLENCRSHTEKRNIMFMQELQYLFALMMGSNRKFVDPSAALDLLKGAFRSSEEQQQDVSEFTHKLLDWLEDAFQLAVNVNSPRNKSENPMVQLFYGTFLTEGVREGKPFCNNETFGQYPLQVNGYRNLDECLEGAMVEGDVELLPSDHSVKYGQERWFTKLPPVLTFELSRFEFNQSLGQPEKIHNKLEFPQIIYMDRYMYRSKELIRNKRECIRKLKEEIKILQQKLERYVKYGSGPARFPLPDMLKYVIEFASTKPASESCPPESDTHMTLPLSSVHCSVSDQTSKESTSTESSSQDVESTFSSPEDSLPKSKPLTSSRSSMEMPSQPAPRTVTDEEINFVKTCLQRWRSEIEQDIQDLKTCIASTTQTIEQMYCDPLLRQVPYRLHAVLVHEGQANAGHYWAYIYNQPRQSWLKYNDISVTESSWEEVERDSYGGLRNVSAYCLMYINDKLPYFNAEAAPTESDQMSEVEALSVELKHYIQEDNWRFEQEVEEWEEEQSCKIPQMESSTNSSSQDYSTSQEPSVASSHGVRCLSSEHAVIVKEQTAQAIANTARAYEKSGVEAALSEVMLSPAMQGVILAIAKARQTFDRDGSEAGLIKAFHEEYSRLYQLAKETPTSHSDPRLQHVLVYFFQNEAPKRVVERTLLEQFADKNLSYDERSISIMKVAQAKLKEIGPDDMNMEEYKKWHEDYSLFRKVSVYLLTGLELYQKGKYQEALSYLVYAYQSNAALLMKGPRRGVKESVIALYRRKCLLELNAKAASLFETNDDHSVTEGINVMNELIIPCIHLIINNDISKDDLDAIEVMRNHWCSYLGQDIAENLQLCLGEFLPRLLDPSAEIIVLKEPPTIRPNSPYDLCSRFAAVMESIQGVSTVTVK
row,IC50,SMILES
1,> 50 µM (inactive),CC(C)NS(=O)(=O)c1cccc2c(NC(=O)C(Cc3ccccc3)NC(=O)c3ccccc3)cccc12 (configuration not stated)
2,10.2 µM,CNC(=O)c1c2n(c3ncccc13)CCN(S(=O)(=O)c1ccc(-c3ccccc3)cc1)C2
3,35.7 µM,COc1ccc(CCNC(=O)CCCn2c(SCC(=O)NCc3ccco3)nc3ccccc3c2=O)cc1OC
4,> 50 µM (inactive),COc1cccc(CN2CCc3nc4nc(C)ccc4cc3C2)c1
5,13.4 µM,Cc1ccc(Cl)cc1NC(=O)c1cc(-c2ccccn2)n[nH]1
6,14 µM,CSc1nc(Cc2ccc(Cl)cc2)nc2ccccc12
7,2.83 µM,CCn1ccc2c(cc(C(=O)Nc3cccc(OC)c3)n2C)c1=O
8,31 µM,CSc1ccccc1C(=O)Nc1nc(-c2ccncc2)cs1
9,4.16 µM,COc1ccc(N(CC(=O)NC2CCCCC2)C(=O)c2ccc(-c3ccccc3)[nH]2)cc1OC
10,> 50 µM (inactive),COc1cc2c(cc1OC)-c1cc(NCc3cc(OC)c(OC)c(OC)c3)nc(=O)n1CC2
11,35 µM,Cc1ccc2nnc(-c3ccccc3)c(C(=O)N3CCN(c4ccccn4)CC3)c2c1
12,> 50 µM (inactive),O=C(CCC1CCCCC1)Nc1ccccc1C(=O)N1CCOCC1
13,23 µM,COc1ccc(CN=C2NS(=O)(=O)C(c3ccc(F)cc3)=C2C)cc1OC
14,30.9 µM,CC(OC(=O)c1cn(-c2ccccc2)nc1-c1cccnc1)C(=O)Nc1cccc(S(=O)(=O)N(C)C)c1 (configuration not stated)
15,15.8 µM,COC(=O)c1sc2ccccc2c1NC(=O)c1ccc(Br)s1
16,17.4 µM,COc1c(C)c(C(O)C(C)O)c2[nH]c3ccc(CC=C(C)C)cc3c2c1O (configuration not stated)
17,> 50 µM (inactive),Cc1ncncc1C(=O)N1CCCC(C)(c2ncc(Cc3cccc(F)c3)o2)C1 (configuration not stated)
18,20.3 µM,Cc1noc(-c2ccc(N3CCCC(C(=O)NCc4ccc(F)cc4)C3)nc2)n1 (configuration not stated)
19,> 50 µM (inactive),O=C(O)Cc1ccc(Nc2nc3ccccc3n3nnnc23)cc1
20,4.07 µM,Cc1ccc(C)c(CSC2=NCCN2C(=O)c2ccco2)c1
21,40.5 µM,CC(=O)c1ccc(NC(=O)/C(=C/c2ccco2)n2nnnc2-c2ccccc2)cc1
22,> 50 µM (inactive),O=S(c1ccc2ccccc2c1)c1cnns1 (configuration not stated)
23,3.36 µM,O=C(COc1ccccc1-c1nnc(-c2ccccc2)o1)Nc1ccc(F)cc1F

row,IC50,SMILES
1,1.8 µM,Cc1c(-c2ccc(C#N)cc2)oc2ccc(Br)cc2c1=O
2,2.76 µM,Cn1c(=O)sc2cc(NC(=O)c3ccc(Br)cc3)ccc21
3,> 50 µM (inactive),CCOc1ccc(C2=NCCNC3=C2C(c2ccccc2)N(c2ccccc2)C3=O)cc1 (configuration not stated)
4,33.8 µM,CCn1c(SCC(=O)N2c3ccccc3CC2C)nnc1-c1ccc2c(c1)OCCO2 (configuration not stated)
5,> 50 µM (inactive),CC(=O)c1ccc(N2C(=O)N(Cc3cccc([N+](=O)[O-])c3)c3ccccc3S2(=O)=O)cc1
6,> 50 µM (inactive),Cc1nc(Nc2c3ccccc3nc3ccccc23)sc1C
7,2.18 µM,COc1ccc(CNC(=O)CCc2nnc3n(Cc4ccccc4Cl)c(=O)c4ccccc4n23)cc1
8,8.62 µM,O=c1[nH]c(C2CCN(S(=O)(=O)c3ccc(S(=O)(=O)NC4CCCCC4)cc3)CC2)nc2c1nnn2Cc1c(Cl)cccc1Cl
9,20.7 µM,Cc1ccccc1OCCSc1nc2ccccc2n1CC(=O)NC1CC1
10,> 50 µM (inactive),O=S(=O)(c1ccc(F)cc1)N1CCCC1c1ccnc(Nc2cnccn2)n1 (configuration not stated)
11,14.9 µM,O=C1CC(c2cc3c(cc2Br)OCO3)c2cc3c(cc2N1)OCCO3 (configuration not stated)
12,25 µM,COc1ccc(OC)c(NC(=O)CS(=O)(=O)c2cn(CC(=O)N3CCC(C)CC3)c3ccccc23)c1
13,23.6 µM,O=C1CC(O)C(O)c2cccc(O)c21 (configuration not stated)
14,35.9 µM,Cc1ccc2c(c1)c(=O)c(C(=O)c1ccc(F)cc1)cn2CC(=O)Nc1ccc2c(c1)OCCO2
15,> 50 µM (inactive),O=C(CSc1ncnc2c1sc1cccc(F)c12)N1CCCCCC1
16,12.5 µM,CS(=O)(=O)N1CCCc2cc(C(=O)Nc3ccc(Oc4ccccc4)cc3)ccc21
17,31.8 µM,O=C(NCCc1ccccc1F)c1cn2cc(Cl)ccc2n1
18,6.71 µM,Cn1c2ccccc2c2ncn(Cc3ccc(F)cc3)c(=O)c21
19,8.65 µM,O=C(CSc1nc2ccccc2n1S(=O)(=O)c1ccc(Br)cc1)Nc1ccc([N+](=O)[O-])cc1Cl
20,> 50 µM (inactive),CC(C(=O)Nc1ccccc1)n1cnc2nc(N3CCCCC3)ncc2c1=O (configuration not stated)
21,> 50 µM (inactive),CC(C)N1C[C@@H]2C[C@H](NS(=O)(=O)c3cccc(C#N)c3)CN2Cc2ccccc21
22,6.72 µM,NC(=O)c1nc(-c2ccccn2)nc2c1[nH]c(=O)n2-c1ccc2c(c1)OCO2
23,33.6 µM,O=C(Cn1nc2ccc(C(=O)NCc3ccccc3)cn2c1=O)Nc1ccc2c(c1)OCO2

row,SMILES,IC50
1,CC[C@@]1(O)C[C@H](OC2CC(N(C)C)C(OC3CC(O)C(OC4CCC(=O)C(C)O4)C(C)O3)C(C)O2)c2c(cc3c(c2O)C(=O)c2c(O)ccc(O)c2C3=O)[C@H]1C(=O)OC (some centres not stated),4.26 µM
